Reference: patent US20060276486A1, “Lklf/klf2 gene expression promoter” (KOWA CO., KTD., priority 2003, published 2006)

Key:
LKLF/KLF2 gene [1] = experiment: LKLF/KLF2 gene expression in HUVEC by reverse transcription and TaqMan analysis (ABI PRISM 7000); type: cell-based, human; conditions: for activities to promote the expression of LKLF/KLF2 gene (summary statement): cultured human cell system; for effect of added metabolite on the increase of LKLF/KLF2 gene expression by pitavastatin calcium: pitavastatin calcium 1 μmol/L in combination with MVA 100 μmol/L, FPP, GGPP or Cho 10 μmol/L, 8 hours
LKLF/KLF2 gene [2] = experiment: LKLF/KLF2 gene expression analysis in HUVEC by Human Genome Focus Array (GeneChip); type: cell-based; conditions: control 271
Protocol: Two days after inoculation of normal human umbilical vein endothelial cells (HUVEC) at 3×10^5 cells/10 cm dish, pitavastatin calcium (indicated as “Pit” in FIG. 1) was added to 1.1 μmol/L. Dimethyl sulfoxide, a solvent for pitavastatin calcium, was added to a control (final concentration: 0.0066 v/v %). Eight hours after the addition, total RNAs were extracted with “ISOGEN” (trade mark, product of NIPPON GENE CO., LTD.). The following procedures were conducted in accordance with the procedures manual of Affymetrix. Inc. Described specifically, following the methods known per se in the art, mRNA was isolated from each total RNA obtained above, and based on the mRNA, cDNA was synthesized. Further, biotin-labeled cRNA was synthesized by in vitro transcription. Subsequent to purification, the biotin-labeled cRNA was subjected to fragmentation by heat treatment to prepare fragmented cRNA for use in a gene expression analysis.
Gene expression analysis method: The fragmented cRNA was poured into “Human Genome Focus Array” (trade name, product of Affymetrix, Inc.), and hybridization was conducted at 45° C. for 16 hours. […] The information was analyzed by “GENECHIP SOFTWARE” (trade name, product of Affymetrix, Inc.) to effect a comparison in expression level.

SMILES	activities to promote the expression of LKLF/KLF2 gene (summary statement) (LKLF/KLF2 gene [1])	effect of added metabolite on the increase of LKLF/KLF2 gene expression by pitavastatin calcium (LKLF/KLF2 gene [1]; HUVEC)	also measured
CSCC[C@H](NC(=O)c1ccc(NC[C@@H](N)CS)cc1-c1ccccc1)C(=O)O [FTI-276]	in possession of activities to promote the expression of LKLF/KLF2 gene		
COC(=O)[C@H](CC(C)C)NC(=O)c1ccc(NC[C@@H](N)CS)cc1-c1ccccc1 [GGTI-286]	in possession of activities to promote the expression of LKLF/KLF2 gene		
CC(C)CCC[C@@H](C)[C@H]1CC[C@H]2[C@@H]3CC=C4C[C@@H](O)CC[C@]4(C)[C@H]3CC[C@]12C [cholesterol]		not affected	
CC(C)=CCC/C(C)=C/CC/C(C)=C/COP(=O)(O)OP(=O)(O)O [farnesyl pyrophosphate]		reduced	
CC(C)=CCC/C(C)=C/CC/C(C)=C/CC/C(C)=C/COP(=O)(O)OP(=O)(O)O [geranylgeranyl pyrophosphate]		reduced	
C[C@@](O)(CCO)CC(=O)O [mevalonic acid]		reduced	
O=C(O)C[C@H](O)C[C@H](O)/C=C/c1c(C2CC2)nc2ccccc2c1-c1ccc(F)cc1 [pitavastatin calcium, (3R,5S,6E)-7-[2-cyclopropyl-4-(4-fluorophenyl)-3-quinolyl]-3,5-dihydroxy-6-heptenoic acid]	has activities to promote the expression of LKLF/KLF2 gene		increase of expression of LKLF/KLF2 gene in comparison with the group added with no drug (LKLF/KLF2 gene [1]; HUVEC, 1 μmol/L alone, 8 hours after addition): 693%; expression of LKLF/KLF2 gene in HUVEC (expression level) with addition of GGPP (LKLF/KLF2 gene [2]; pitavastatin calcium 1.1 μmol/L plus geranylgeranyl pyrophosphate (GGPP), 8 hours): 355; expression of LKLF/KLF2 gene in HUVEC (expression level) (LKLF/KLF2 gene [2]; pitavastatin calcium 1.1 μmol/L, 8 hours after addition): 761
